In ChEMBL document CHEMBL5241075, “Advancement of chimeric hybrid drugs to cure malaria infection: An overview with special emphasis on endoperoxide pharmacophores” (Eur J Med Chem, 2021):
Converted amounts (≈) assume the structure as drawn. The source made the active and inactive calls. The rule behind the calls is not given here.

Tests used:
[1] = tested on: Human immunodeficiency virus; experiment: Antiviral activity against HIV; assay type: functional, organism-based; conditions: Human immunodeficiency virus 1
Plasmodium falciparum [2] = experiment: Antiplasmodial activity against Plasmodium falciparum K1; assay type: functional, organism-based; conditions: Plasmodium falciparum, K1
Plasmodium berghei [3] = experiment: Antiplasmodial activity against Plasmodium berghei infected in mouse assessed as reduction in parasitemia at 65 mg/kg, sc measured after 4 days post treatment relative to control; assay type: functional; set-up: scale not given: the % may be the effect or the level left; conditions: time 4 day
Plasmodium berghei [4] = experiment: Antiplasmodial activity against Plasmodium berghei infected in mouse assessed as reduction in parasitemia at 35 microg/kg, sc measured after 4 days post treatment relative to control; assay type: functional; set-up: scale not given: the % may be the effect or the level left; conditions: dose 35 µg/kg, time 4 day
Plasmodium falciparum [5] = experiment: Antiplasmodial activity against Plasmodium falciparum 3D7; assay type: functional, organism-based
Plasmodium berghei [6] = experiment: Antiplasmodial activity against Plasmodium berghei infected in mouse assessed as reduction in parasitemia by measuring survival rate at 35 microg/kg, sc measured after 41 days of post infection relative to control; assay type: functional; conditions: 984 h, dose 35 µg/kg, time 41 day
Plasmodium falciparum [7] = experiment: Antiplasmodial activity against Plasmodium falciparum DD2; assay type: functional, organism-based
Plasmodium falciparum [8] = experiment: Antimalarial activity against erythrocytic stage chloroquine sensitive Plasmodium falciparum W2 infected in mouse assessed as reduction in parasitemia at 32 mg/kg/day, po qd measured after 4 days by Giemsa staining based analysis relative to control; assay type: functional; set-up: scale not given: the % may be the effect or the level left; conditions: time 4 day
Plasmodium falciparum [9] = experiment: Antimalarial activity against chloroquine resistant Plasmodium falciparum FcR3 Gambia; assay type: functional, organism-based
Plasmodium vinckei [10] = experiment: Antimalarial activity against chloroquine resistant Plasmodium vinckei infected in po dosed swiss mouse assessed as reduction in parasitemia; assay type: functional
Plasmodium falciparum [11] = experiment: Antimalarial activity against chloroquine sensitive Plasmodium falciparum D6; assay type: functional, organism-based
Plasmodium falciparum [12] = experiment: Antimalarial activity against erythrocytic stage chloroquine sensitive Plasmodium falciparum W2 infected in mouse assessed as reduction in parasitemia at 63 mg/kg/day, po qd measured after 4 days by Giemsa staining based analysis; assay type: functional; set-up: scale not given: the % may be the effect or the level left; conditions: time 4 day
Plasmodium falciparum [13] = experiment: Antimalarial activity against erythrocytic stage chloroquine sensitive Plasmodium falciparum 3D7 infected in mouse assessed as reduction in parasitemia at 63 mg/kg/day, po qd measured after 4 days by Giemsa staining based analysis relative to control; assay type: functional; set-up: scale not given: the % may be the effect or the level left; conditions: time 4 day
Plasmodium falciparum [14] = experiment: Antimalarial activity against chloroquine sensitive Plasmodium falciparum F32; assay type: functional, organism-based
[15] = tested on: Plasmodium vinckei petteri; experiment: Antimalarial activity against chloroquine sensitive Plasmodium vinckei petteri infected in po dosed swiss mouse assessed as reduction in parasitemia; assay type: functional
Plasmodium falciparum [16] = experiment: Antimalarial activity against chloroquine resistant Plasmodium falciparum W2; assay type: functional, organism-based
Plasmodium falciparum [17] = experiment: Antimalarial activity against chloroquine resistant Plasmodium falciparum FcB1 Colombia; assay type: functional, organism-based
Plasmodium falciparum [18] = experiment: Antiplasmodial activity against chloroquine resistant Plasmodium falciparum by HRP2 ELISA analysis; assay type: functional, organism-based
Plasmodium falciparum [19] = experiment: Antimalarial activity against chloroquine resistant Plasmodium falciparum FcM29 Cameron; assay type: functional, organism-based
Plasmodium falciparum [20] = experiment: Antimalarial activity against chloroquine resistant Plasmodium falciparum PaloAlto; assay type: functional, organism-based
Plasmodium falciparum [21] = experiment: Antiplasmodial activity against Plasmodium falciparum Nigerian; assay type: functional, organism-based
Plasmodium vinckei [22] = experiment: Antimalarial activity against Plasmodium vinckei infected in ip dosed mouse assessed as reduction in parasitemia relative to control; assay type: functional; set-up: scale not given: the % may be the effect or the level left
Plasmodium vinckei [23] = experiment: Antimalarial activity against Plasmodium vinckei infected in po dosed mouse assessed as reduction in parasitemia; assay type: functional
Plasmodium vinckei [24] = experiment: Antimalarial activity against Plasmodium vinckei infected in ip dosed mouse assessed as reduction in parasitemia; assay type: functional
Plasmodium falciparum [25] = experiment: Antimalarial activity against chloroquine resistant Plasmodium falciparum FcB1; assay type: functional, organism-based
Plasmodium vinckei [26] = experiment: Antimalarial activity against Plasmodium vinckei infected in po dosed mouse assessed as reduction in parasitemia relative to control; assay type: functional; set-up: scale not given: the % may be the effect or the level left
Plasmodium falciparum [27] = experiment: Antiplasmodial activity against Plasmodium falciparum F-32; assay type: functional, organism-based
[28] = tested on: Plasmodium yoelii nigeriensis; experiment: Antiplasmodial activity against Plasmodium yoelii nigeriensis infected in sc dosed mouse assessed as reduction in parasitemia; assay type: functional
Plasmodium falciparum [29] = experiment: Antiplasmodial activity against Plasmodium falciparum FcM29; assay type: functional, organism-based
[30] = tested on: Plasmodium yoelii nigeriensis; experiment: Antiplasmodial activity against Plasmodium yoelii nigeriensis infected in po dosed mouse assessed as reduction in parasitemia; assay type: functional
Plasmodium berghei [31] = experiment: Antimalarial activity against Plasmodium berghei KBG 173 infected in ICR mouse assessed as survival time at 20 mg/kg/day, po qd administered 3 to 5 days post infection; assay type: functional; conditions: time 3-5 day
Plasmodium berghei [32] = experiment: Antimalarial activity against Plasmodium berghei KBG 173 infected in ICR mouse assessed as animal survival at 80 mg/kg/day, po qd administered 3 to 5 days post infection; assay type: functional, organism-based; conditions: time 3-5 day
Plasmodium falciparum [33] = experiment: Antiplasmodial activity against Plasmodium falciparum TM91C235; assay type: functional, organism-based
Plasmodium berghei [34] = experiment: Antimalarial activity against Plasmodium berghei KBG 173 infected in ICR mouse assessed as survival time at 80 mg/kg/day, po qd administered 3 to 5 days post infection; assay type: functional; conditions: time 3-5 day
Plasmodium berghei [35] = experiment: Antimalarial activity against Plasmodium berghei KBG 173 infected in ICR mouse assessed as survival time at 320 mg/kg/day, po qd administered 3 to 5 days post infection; assay type: functional; conditions: time 3-5 day
Plasmodium berghei [36] = experiment: Antimalarial activity against Plasmodium berghei KBG 173 infected in ICR mouse assessed as animal survival at 320 mg/kg/day, po qd administered 3 to 5 days post infection; assay type: functional, organism-based; conditions: time 3-5 day
Plasmodium berghei [37] = experiment: Antimalarial activity against Plasmodium berghei KBG 173 infected in ICR mouse assessed as animal survival at 20 mg/kg/day, po qd administered 3 to 5 days post infection; assay type: functional, organism-based; conditions: time 3-5 day
Plasmodium chabaudi = experiment: Antiplasmodial activity against Plasmodium chabaudi infected in mouse assessed as survival rate relative to control; assay type: functional
Plasmodium falciparum [38] = experiment: Antiplasmodial activity against Plasmodium falciparum gametocytes by [3H]hypoxanthine incorporation assay; assay type: functional, organism-based
Plasmodium falciparum [39] = experiment: Potency index, ratio of mefloquine IC50 to test compound IC50 for antiplasmodial activity against Plasmodium falciparum gametocytes by [3H]hypoxanthine incorporation assay; assay type: functional
Plasmodium falciparum [40] = experiment: Potency index, ratio of artesunate IC50 to test compound IC50 for antiplasmodial activity against Plasmodium falciparum gametocytes by [3H]hypoxanthine incorporation assay; assay type: functional
Plasmodium falciparum [41] = experiment: Antiplasmodial activity against Plasmodium falciparum gametocytes assessed as inhibition of gametocyte activation by [3H]hypoxanthine incorporation assay; assay type: functional, organism-based
[42] = read-out: ED50 (the source's name)

Cc1cn([C@H]2C[C@H](N=[N+]=[N-])[C@@H](CO[C@H]3OC4O[C@]5(C)CC[C@H]6[C@H](C)CC[C@@H]([C@H]3C)[C@@]46OO5)O2)c(=O)[nH]c1=O (stereo partly drawn)
IC50 [1]: 2.86 µM

C[C@H]1[C@H](OC(=O)CCC(=O)CCNc2ccnc3cc(Cl)ccc23)O[C@@H]2O[C@]3(C)CC[C@H]4[C@H](C)CC[C@@H]1[C@@]24OO3
EC50 (Plasmodium falciparum [2]; read-out: EC50): 0.0017 µM
Activity (Plasmodium berghei [3]): >99%
Activity (Plasmodium berghei [4]): 95.2%
EC50 (Plasmodium falciparum [5]; read-out: EC50): 0.0045 µM
survival at 0.035 mg/kg (Plasmodium berghei [6]): 80%
EC50 (Plasmodium falciparum [7]): 0.0023 µM

CC1(C)COC(C2CCC(NC3CCC(Nc4ccnc5cc(Cl)ccc45)CC3)CC2)OO1 (stereo not drawn)
Activity (Plasmodium falciparum [8]): 77%
IC50 (Plasmodium falciparum [9]): 0.012 µM
ED100 (Plasmodium vinckei [10]): 30 mg/kg/day
IC50 (Plasmodium falciparum [11]): 0.007 µM
Activity (Plasmodium falciparum [12]): 96%
Activity (Plasmodium falciparum [13]): 100%
IC50 (Plasmodium falciparum [14]): 0.013 µM
ED100 [15]: 32 mg/kg/day
IC50 (Plasmodium falciparum [16]): 0.015 µM
IC50 (Plasmodium falciparum [17]): 0.024 µM
IC50 (Plasmodium falciparum [18]): 0.0198 µM
IC90 (Plasmodium falciparum [18]): 0.0293 µM
IC99 (Plasmodium falciparum [18]): 0.0448 µM
MIC (Plasmodium falciparum [18]): 0.0472 µM (≈ 0.0224 µg/mL)
IC50 (Plasmodium falciparum [19]): 0.01 µM
IC50 (Plasmodium falciparum [20]): 0.015 µM

CC(C)C1=C[C@H]2OC3(CCC(NCCNc4cc(Cl)cc5cccnc45)CC3)OO[C@@]2(C)CC1.O=C(O)CC(O)(CC(=O)O)C(=O)O.O=C(O)CC(O)(CC(=O)O)C(=O)O (stereo partly drawn)
IC50 (Plasmodium falciparum [21]): 0.004 µM
Activity (Plasmodium vinckei [22]): 50%
ED50 (Plasmodium vinckei [23]): 18 mg/kg/day
ED50 (Plasmodium vinckei [24]): 5 mg/kg/day
IC50 (Plasmodium falciparum [25]): 0.004 µM
Activity (Plasmodium vinckei [26]): 50%
IC50 (Plasmodium falciparum [27]): 0.004 µM
CD50 [28]: 3 mg/kg/day
CD90 [28]: 12 mg/kg/day
ED50 ([28]; Plasmodium yoelii): 2 mg/kg/day
ED90 ([28]; Plasmodium yoelii): 5 mg/kg/day
IC50 (Plasmodium falciparum [29]): 0.004 µM
CD50 [30]: 22 mg/kg/day
CD90 [30]: 44 mg/kg/day
ED50 ([30]; Plasmodium yoelii): 15 mg/kg/day
ED90 ([30]; Plasmodium yoelii): 23 mg/kg/day

O=C(NCCNc1ccnc2cc(Cl)ccc12)C1CCC2(CC1)OOC1(CCCCC1)OO2
Time (Plasmodium berghei [31]): 14.2 days
Activity (Plasmodium berghei [32]): Active
IC90 (Plasmodium falciparum [33]): 0.00378 µM
Time (Plasmodium berghei [34]): 26.2 days
Time (Plasmodium berghei [35]): >31 days
Activity (Plasmodium berghei [36]): Active
Activity (Plasmodium berghei [37]): inactive

C[C@@H]1CC[C@H]2[C@@H](C)C(CCc3ccc(C(=O)O)cc3)O[C@@H]3O[C@]4(C)CC[C@@H]1[C@]32OO4 (stereo partly drawn)
EC50 (Plasmodium falciparum [2]; [42]): 0.6 ng/mL
Survival (Plasmodium chabaudi): 100%
EC50 (Plasmodium falciparum [5]; [42]): 1.1 ng/mL

C[C@H]1[C@@H](OC(=O)CCC(=O)O)O[C@@H]2C[C@@]3(C)CC[C@H]4[C@H](C)CC[C@@H]1[C@@]24OO3.FC(F)(F)c1ccc2c(CC3CCCCN3)c3cccc(C(F)(F)F)c3nc2c1 (stereo not drawn)
IC50 (Plasmodium falciparum [38]): 4600 µM
Ratio (Plasmodium falciparum [39]): 280
Ratio (Plasmodium falciparum [40]): 15
IC50 (Plasmodium falciparum [41]): 20 µM
